Read-outs that look alike come from different tables or passages of the source. Square brackets hold non-standard residues; d marks the D form. Peptide text beside a SMILES is read from it. * marks the point of attachment. dPhe(4-NHCONH2) = NC(=O)Nc1ccc(C[C@@H](N)C(=O)O)cc1; Dihydroorotyl(S) = O=C1C[C@@H](C(=O)*)NC(=O)N1; dPhe(4-Cl) = N[C@H](Cc1ccc(Cl)cc1)C(=O)O; Phe(4-NH2) = Nc1ccc(C[C@H](N)C(=O)O)cc1; d2Nal = N[C@H](Cc1ccc2ccccc2c1)C(=O)O; Lys(iPr) = CC(C)NCCCC[C@H](N)C(=O)O; d3Pal = N[C@H](Cc1cccnc1)C(=O)O
Tests used:
[1] = system: cancer cell lines classified IM, MSL, M; experiment: PRISM screen compound sensitivity correlated with IM, MSL and M subtype of cell lines (101 gene signature); type: cell-based
[2] = system: cancer cell lines, DetermaIO classes; experiment: Association of PRISM compound sensitivity with DetermaIO (DTIO) cell line classes; type: cell-based
[3] = correlation of PRISM compound sensitivity with IM subtype correlation, test cell set (188 cell lines)
[4] = correlation of PRISM compound sensitivity with M subtype correlation, test cell set (188 cell lines)
[5] = correlation of PRISM compound sensitivity with MSL subtype correlation, test cell set (188 cell lines)
[6] = correlation of PRISM compound sensitivity with DTIO (DetermaIO), test cell set (188 cell lines)
[7] = correlation of PRISM compound sensitivity with DTIO (DetermaIO), training cell set (371 cell lines)
[8] = correlation of PRISM compound sensitivity with IM subtype correlation, test cell set
[9] = correlation of PRISM compound sensitivity with M subtype correlation, test cell set
[10] = correlation of PRISM compound sensitivity with MSL subtype correlation, test cell set
[11] = correlation of PRISM compound sensitivity with DTIO, test cell set
[12] = correlation of PRISM compound sensitivity with DTIO, training cell set
[13] = subtype (IM, MSL or M) assigned to the compound by negative correlation of PRISM sensitivity with subtype, training cell set (371 cell lines), 101 gene signature
[14] = subtype (IM, MSL or M) with which compound sensitivity is negatively correlated, training cell set (371 cell lines), 101 gene signature
[15] = subtype (IM, MSL or M) with which PRISM compound sensitivity is negatively correlated, training cell set, 101 gene signature
[16] = subtype (IM, MSL or M) the PRISM compound sensitivity is associated with, training cell set (371 cell lines), 101 gene signature
[17] = correlation of PRISM compound sensitivity with DTIO, test cell set (188 cell lines)
[18] = correlation of PRISM compound sensitivity with DTIO, training cell set (371 cell lines)

SMILES | IM Corr test [1, 3] | M Corr test [1, 4] | MSL Corr test [1, 5] | IM Corr test [1, 8] | M Corr test [1, 9] | MSL Corr test [1, 10] | DTIO Corr test [2, 11] | DTIO Corr train [2, 12] | further results
COc1cc(-c2ccc(N=Nc3ccc4c(S(=O)(=O)[O-])cc(S(=O)(=O)[O-])c(N)c4c3O)c(OC)c2)ccc1N=Nc1ccc2c(S(=O)(=O)[O-])cc(S(=O)(=O)[O-])c(N)c2c1O.[Na+].[Na+].[Na+].[Na+] [chicago-sky-blue-6b] | −0.1701 | 0.1599 | 0.184 | – | – | – | – | – | DTIO Corr test [2, 6]: −0.07521; DTIO Corr train [2, 7]: −0.1611
CCS(=O)(=O)N(C)[C@H]1c2cc(C#N)ccc2OC(C)(C)[C@@H]1O [chromanol-293B-(−)-[3R,4S]] | – | – | – | −0.09685 | 0.08774 | 0.1021 | −0.09957 | −0.08029 | –
Cc1c(Cl)cccc1Nc1ncccc1C(=O)O.NCCCC[C@H](N)C(=O)O [clonixin-lysinate] | – | – | – | – | – | – | – | – | IM Corr test [1]: −0.06378; M Corr test [1]: 0.004709; MSL Corr test [1]: −0.03679; TNBCType train [1]: MSL; DTIO Corr test [2]: −0.01494; DTIO Corr train [2]: −0.00484
CN(CCOP(=O)(O)O)C(=N)N [creatinol-phosphate] | – | – | – | −0.00785 | 0.001052 | −0.06276 | 0.02757 | −0.08518 | –
CN[C@@H](C)[C@H]1[C@H](O)C[C@@]2(C)[C@@H]3CC[C@H]4C(C)(C)[C@@H](NC)CC[C@@]45C[C@@]35CC[C@]12C [cyclovirobuxin-d] | – | – | – | 0.03318 | −0.04158 | 0.04619 | 0.02667 | 0.06721 | –
N#CCNC(=O)c1ccc(-c2ccnc(Nc3ccc(N4CCOCC4)cc3)n2)cc1 [cyt387] | 0.06763 | −0.1142 | −0.1416 | – | – | – | – | – | TNBCType train [1, 13]: MSL; DTIO Corr test [2, 6]: 0.000569; DTIO Corr train [2, 7]: −0.03421
CC(=O)N[C@H](Cc1ccc2ccccc2c1)C(=O)N[C@H](Cc1ccc(Cl)cc1)C(=O)N[C@H](Cc1cccnc1)C(=O)N[C@@H](CO)C(=O)N[C@@H](Cc1ccc(NC(=O)[C@@H]2CC(=O)NC(=O)N2)cc1)C(=O)N[C@H](Cc1ccc(NC(N)=O)cc1)C(=O)N[C@@H](CC(C)C)C(=O)N[C@@H](CCCCNC(C)C)C(=O)N1CCC[C@H]1C(=O)N[C@H](C)C(N)=O [degarelix] (Ac-[d2Nal][dPhe(4-Cl)][d3Pal]S[Phe(4-NH2)](Dihydroorotyl(S))[dPhe(4-NHCONH2)]L[Lys(iPr)]P[dA]-NH2) | 0.000275 | −0.03554 | −0.05421 | – | – | – | −0.01776 | 0.01996 | TNBCType train [1, 14]: MSL
CCN(CC)C(=S)[S-].O.O.O.[Na+] [ditiocarb-sodium-trihydrate] | – | – | – | −0.07988 | 0.03103 | −0.01951 | −0.1096 | −0.01519 | TNBCType train [1, 15]: MSL
C[C@]12N[C@H](Cc3ccccc31)c1ccccc12 [dizocilpine-(−)] | – | – | – | −0.0703 | −0.00928 | −0.09183 | −0.06945 | 0.02729 | TNBCType train [1, 15]: MSL
CC[C@H](C)[C@@H]([C@@H](CC(=O)N1CCC[C@H]1[C@H](OC)[C@@H](C)C(=O)N[C@@H](Cc1ccccc1)c1nccs1)OC)N(C)C(=O)[C@@H](NC(=O)[C@H](C(C)C)N(C)C)C(C)C [dolastatin-10] | −0.05477 | 0.003299 | −0.00011 | – | – | – | – | – | TNBCType train [1, 13]: MSL; DTIO Corr test [2, 6]: −0.08086; DTIO Corr train [2, 7]: −0.07579
C[C@H](N[C@@H](CCc1ccccc1)C(=O)O)C(=O)N1CCC[C@H]1C(=O)O [enalaprilat] | 0.03404 | −0.06381 | −0.1038 | – | – | – | – | – | TNBCType train [1, 16]: MSL; DTIO Corr test [2, 17]: −0.03184; DTIO Corr train [2, 18]: 0.0604
C=C1C[C@@H]2[C@H](CC[C@]3(C)C(=O)CC[C@@H]23)[C@@]2(C)C=CC(=O)C=C12 [exemestane] | – | – | – | – | – | – | – | – | IM Corr test [1]: 0.07921; M Corr test [1]: −0.1056; MSL Corr test [1]: −0.04525; DTIO Corr test [2]: 0.03291; DTIO Corr train [2]: 0.03081
CCC(O)(c1ccccc1)c1cccc(C(F)(F)F)c1 (stereo not drawn) [flumecinol] | 0.06404 | −0.06491 | −0.09398 | – | – | – | 0.03786 | 0.02706 | TNBCType train [1, 14]: MSL
OCCN1CCN(CC/C=C2/c3ccccc3Sc3ccc(C(F)(F)F)cc32)CC1 [flupentixol] | −0.05449 | 0.1086 | 0.1536 | – | – | – | – | – | DTIO Corr test [2, 6]: −0.04775; DTIO Corr train [2, 7]: −0.1041
C[C@H](C(=O)O)c1ccc(-c2ccccc2)c(F)c1 [flurbiprofen-(S)-(+)] | −0.0194 | 0.01889 | 0.02942 | – | – | – | – | – | DTIO Corr test [2, 6]: −0.0319; DTIO Corr train [2, 7]: −0.04195
CNC(=O)CN(CCN(CCN(CC(=O)[O-])CC(=O)NC)CC(=O)[O-])CC(=O)[O-].[Gd+3] [gadodiamide] | – | – | – | −0.07426 | 0.04886 | −0.03759 | −0.0433 | −0.1128 | –
CC(O)CN1CCN(CC(=O)[O-])CCN(CC(=O)[O-])CCN(CC(=O)[O-])CC1.[Gd+3] (stereo not drawn) [gadoteridol] | −0.02624 | −0.02135 | −0.00929 | – | – | – | −0.08228 | −0.04116 | TNBCType train [1, 14]: MSL
CC(C)=CCC[C@](C)(O[C@@H]1O[C@H](CO)[C@@H](O)[C@H](O)[C@H]1O)[C@H]1CC[C@]2(C)[C@@H]1[C@H](O)C[C@@H]1[C@@]3(C)CC[C@H](O[C@@H]4O[C@H](CO)[C@@H](O)[C@H](O)[C@H]4O[C@@H]4O[C@H](CO)[C@@H](O)[C@H](O)[C@H]4O)C(C)(C)[C@@H]3CC[C@]12C [ginsenoside-rd] | – | – | – | – | – | – | – | – | IM Corr test [1]: −0.05744; M Corr test [1]: −0.00784; MSL Corr test [1]: −0.02352; TNBCType train [1, 14]: MSL; DTIO Corr test [2]: −0.0392; DTIO Corr train [2]: −0.02011
CC(C)=CCC[C@](C)(O)[C@H]1CC[C@]2(C)[C@@H]1[C@H](O)C[C@@H]1[C@@]3(C)CC[C@H](O[C@@H]4O[C@H](CO)[C@@H](O)[C@H](O)[C@H]4O[C@@H]4O[C@H](CO)[C@@H](O)[C@H](O)[C@H]4O)C(C)(C)[C@@H]3CC[C@]12C [ginsenoside-rg3] | 0.007852 | −0.05841 | −0.02955 | – | – | – | −0.00056 | 0.0566 | –
CC(C)C[C@H](NC(=O)CNC(=O)[C@H](Cc1ccc(O)cc1)NC(=O)[C@H](CO)NC(=O)[C@H](Cc1c[nH]c2ccccc12)NC(=O)[C@H](Cc1cnc[nH]1)NC(=O)[C@@H]1CCC(=O)N1)C(=O)N[C@@H](CCCNC(=N)N)C(=O)N1CCC[C@H]1C(=O)NCC(N)=O [gonadorelin] | −0.1061 | −0.01145 | −0.1224 | – | – | – | – | – | TNBCType train [1, 16]: MSL; DTIO Corr test [2, 17]: −0.06774; DTIO Corr train [2, 18]: −0.05189
O=C(O)Cc1cccnc1C(=O)O [homoquinolinic-acid] | – | – | – | −0.08778 | 0.05663 | 0.003236 | −0.0252 | −0.1121 | –
O=C(O)CCCN1C(=O)c2cccc3cccc(c23)C1=O [isodibut] | −0.04572 | −0.03436 | −0.1039 | – | – | – | – | – | TNBCType train [1, 13]: MSL; DTIO Corr test [2, 6]: −0.0652; DTIO Corr train [2, 7]: 0.05075
CNC(C)CCC=C(C)C.CNC(C)CCC=C(C)C.O=C(O)[C@@H](O)[C@H](O)[C@H](O)[C@@H](O)C(=O)O [isometheptene-mucate] | −0.09289 | 0.05313 | 0.118 | – | – | – | −0.04443 | −0.1179 | –
C[C@]12CC[C@H]3[C@@H](CC[C@]4(O)C[C@@H](O)CC[C@]34C=O)[C@@]1(O)CC[C@@H]2C1=CC(=O)OC1 [k-strophanthidin] | −0.06974 | −0.03165 | −0.1099 | – | – | – | −0.03307 | −0.01124 | TNBCType train [1, 14]: MSL
O=C(CCn1cnc2c(=O)[nH]cnc21)Nc1ccc(C(=O)O)cc1 [leteprinim] | – | – | – | 0.08575 | −0.1262 | −0.09795 | 0.02507 | −0.08293 | TNBCType train [1, 15]: MSL
N=C(N)NC(=N)Nc1cccc(Cl)c1 [m-Chlorophenylbiguanide] | – | – | – | −0.148 | 0.08655 | 0.1129 | −0.0968 | −0.09639 | –
